The test system of data set [1] is PKB Ser473 phosphorylation in Rat1-myr-HA-p110 delta cells. Briefly: Reverse protein array assay, PKB Ser473 phosphorylation in Rat1-myr-p110 delta cells. Type of data set: cell-based. The settings on record: read-out: p-PKB IC50. In a few lines:
(§1)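 Lysates were arrayed at four dilutions, and phospho-PKB Ser473 was quantified by relative fluorescence signal. They came from Rat1-myr-HA-p110 alpha, beta or delta cells exposed for 30 min at 37 °C to an 8-point compound series with 0.2% DMSO constant.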

The next data set concerns the target T1, PI3K delta (Homo sapiens, UniProt O00329).
T1 construct: for the full-length p110-d subunit are generated and fused by overlapping PCR; p85(iSH2) fusion partner (see partner chain) (N); His tag (C); made in house; host or cells: baculovirus; Tn5 (Trichoplusia ni) or TiniPro insect cells
The data set is described as follows: PI3K delta kinase assay (Kinase-Glo luminescence). The format is biochemical. In a few lines: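 Kinase-Glo luminescence read-out of ATP remaining after 60 min at RT. Enzyme: 10 nM BV1060 (p85 iSH2–p110δ fusion, His-tagged); substrate 10 μg/mL PI, ATP 1 μM final; Tris pH 7.5 buffer with MgCl2, NaCl, CHAPS, DTT. IC50 from 4-parameter logistic fit over 8 concentrations.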

Data set [2] has as its system PKB Ser473 phosphorylation in Rat1-myr-HA-p110 beta cells. Briefly: Reverse protein array assay, PKB Ser473 phosphorylation in Rat1-myr-p110 beta cells. The format is cell-based. The settings on record: 0.5 h, pAkt Ser473, 30 minutes incubation, read-out: p-PKB IC50. The procedure, abridged: as §1
The next data set deals with T2, PI3K alpha (Homo sapiens, UniProt P42336).
T2 construct: p85(iSH2) fusion partner (see partner chain) (N); His tag (C); made in house; host or cells: baculovirus; Tn5 (Trichoplusia ni) or TiniPro insect cells
Briefly: PI3K alpha kinase assay (Kinase-Glo luminescence). The format is biochemical. In a few lines:
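Read-out: Kinase-Glo luminescence of ATP left after 60 min at room temperature. Conditions: 10 nM PI3Kα (EMV B1075), 1 μM ATP, 10 μg/mL PI substrate, Tris pH 7.5 buffer with MgCl2, NaCl, CHAPS and DTT. IC50s fitted with a four-parameter logistic model.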

The target in a further data set is T3, PI3K gamma (Homo sapiens, UniProt P48736).
T3 construct: His tag (C); made in house; host or cells: baculovirus (pVL1393); Tn5 or TiniPro insect cells; construct from Roger Williams lab, MRC LMB
Briefly: PI3K gamma kinase assay (Kinase-Glo luminescence). Type of data set: biochemical. As to the method: (§2) In a more preferred assay, the kinase reaction is performed in a final volume of 10 μL per well of a low volume non binding CORNING, 384 well black plate (Cat. No. #3676). The final concentrations of ATP and phosphatidyl inositol (PI) in the assay are 1 μM and 10 μg/mL respectively. The reaction is started by the addition of ATP.
(§3) The components of the assay are added per well as follows:
(§4) […] in 90% DMSO per well, in columns 1-20, 8 concentrations (1/3 and 1/3.33 serial dilution step) in single. • Low control: […] of 90% DMSO in half the wells of columns 23-24 (0.45% in final). • High control: […] of reference compound (e.g. compound of Example 7 in WO 2006/122806) in the other half of columns 23-24 (2.5 μM in final). • Standard: […] of reference compound as just mentioned diluted as the test compounds in columns 21-22 • 20 mL ‘buffer’ are prepared per assay: • 200 μL of 1M TRIS HCl pH7.5 (10 mM in final) • 60 μL of 1M MgCl2 (3 mM in final) • 500 μL of 2M NaCl (50 mM in final) • 100 μL of 10% CHAPS (0.05% in final) • 200 μL of 100 mM DTT (1 mM in final) • 18.94 mL of nanopure water • 10 mL ‘PI’ are prepared per assay: • 200 μL of 1 mg/ml L-alpha-Phosphatidylinositol (Liver Bovine, Avanti Polar Lipids Cat. No. 840042C MW=909.12) prepared in 3% OctylGlucoside (10 μg/ml in final) • 9.8 mL of ‘buffer’ • 10 mL ‘ATP’ are prepared per assay: • 6.7 μL of 3 mM stock of ATP giving a final concentration of 1 μM per well • 10 mL of ‘buffer’ • 2.5 mL of each PI3K construct are prepared per assay in ‘PI’ with the following final concentration: • 10 nM PI3K alfa EMV B1075 • 25 nM beta EMV BV949 • 10 nM delta EMV BV1060 • 150 nM gamma EMV BV950 • 5 μL of ‘PI/PI3K’ are added per well. • 5 μl ‘ATP’ are added per well to start the reaction. • The plates are then incubated at room temperature for 60 minutes (alfa, beta, delta) or 120 minutes (gamma). • The reaction is terminated by the addition of 10 μL Kinase-Glo (Promega Cat. No. #6714). • The assay plates are read after 10 minutes in Synergy 2 reader (BioTek, Vermont USA) with an integration time of 100 milliseconds and sensitivity set to 191. • Output: The High control is around 60'000 counts and the Low control is 30'000 or lower • This luminescence assay gives a useful Z′ ratio between 0.4 and 0.7
(§5) IC50 is determined by a four parameter curve fitting routine that comes along with “excel fit”. […] Alternatively, IC50 values are calculated using idbsXLfit model 204, which is a 4 parameter logistic model.
A general note: Kinase-Glo reads ATP consumption through a luciferase reaction.

Data set [3] deals with PKB Ser473 phosphorylation in Rat1-myr-HA-p110 alpha cells. Briefly: Reverse protein array assay, PKB Ser473 phosphorylation in Rat1-myr-p110 alpha cells. The format is cell-based. Particulars: 0.5 h, pAkt Ser473, 30 minutes compound incubation, read-out: p-PKB IC50. In a few lines:
as §1

The next data set is described as follows: Solubility at pH 6.8. Type of data set: physicochemical. The settings on record: pH 6.8, aqueous buffer, thermodynamic from solid; read-out: solubility. The text has this:
The physicochemical properties of relevance for the absorption of the compound, such as the solubility and the membrane permeability, especially at a pH close to neutral pH can be measured using the procedure as described by L. ZHOU et al. in JOURNAL OF PHARMACEUTICAL SCIENCES, VOL. 96, NO. 11, p. 3052-3071 (2007) for the solubility at pH 6.8 and the procedure as described by F. Wohnsland and B. Faller in Journal of Medicinal Chemistry Vol 44, p. 923-930 (2001) for the Parallel Artificial Membrane Permeability Assay (PAMPA) at pH 6.8.

The target in the next data set is T4, PI3K beta (Homo sapiens, UniProt P42338).
T4 construct: for the full-length p110-b subunit are generated and fused by overlapping PCR; p85(iSH2) fusion partner (see partner chain) (N); His tag (C); made in house; host or cells: baculovirus; Tn5 (Trichoplusia ni) or TiniPro insect cells
The data set is described as follows: PI3K beta kinase assay (Kinase-Glo luminescence). Type of data set: biochemical. The procedure:
as §2, §3, §4
PI3Kβ BV-949 p85(iSH2)-Gly Linker-p110b(Full-Length)-C-Term his Tag
as §5

A further data set addresses T5, mTOR (Homo sapiens, UniProt P42345).
T5 construct: purchased Invitrogen Corporation (Carlsbad/CA, USA) PV4753
The data set is described as follows: Biochemical assay for m-TOR by TR-FRET. The settings on record: 8 μM ATP, 400 nM GFP-4EBP1, 0.5 nM mTOR. The procedure, abridged:
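mTOR (0.5 nM) was incubated at rt with ATP (8 μM final) and GFP-4EBP1 (400 nM final) in 50 mM HEPES pH 7.5, 10 mM MnCl2, 50 mM NaCl, 1 mM EGTA, 1 mM DTT. EDTA stop with Tb3+-anti-p4EBP1 [pThr46] antibody (0.5 nM); TR-FRET read 15 min later.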
In general terms: In TR-FRET formats the signal depends on donor and acceptor labels being close together.

The structures appear in SMILES notation. In brackets after ≈: the same amount, converted by molar mass.

The record followed here is patent US20140005163A1 (NOVARTIS AG, priority 2010, published 2014).

T4 sequence (P42338 with tags, fused parts or gaps limits assumed): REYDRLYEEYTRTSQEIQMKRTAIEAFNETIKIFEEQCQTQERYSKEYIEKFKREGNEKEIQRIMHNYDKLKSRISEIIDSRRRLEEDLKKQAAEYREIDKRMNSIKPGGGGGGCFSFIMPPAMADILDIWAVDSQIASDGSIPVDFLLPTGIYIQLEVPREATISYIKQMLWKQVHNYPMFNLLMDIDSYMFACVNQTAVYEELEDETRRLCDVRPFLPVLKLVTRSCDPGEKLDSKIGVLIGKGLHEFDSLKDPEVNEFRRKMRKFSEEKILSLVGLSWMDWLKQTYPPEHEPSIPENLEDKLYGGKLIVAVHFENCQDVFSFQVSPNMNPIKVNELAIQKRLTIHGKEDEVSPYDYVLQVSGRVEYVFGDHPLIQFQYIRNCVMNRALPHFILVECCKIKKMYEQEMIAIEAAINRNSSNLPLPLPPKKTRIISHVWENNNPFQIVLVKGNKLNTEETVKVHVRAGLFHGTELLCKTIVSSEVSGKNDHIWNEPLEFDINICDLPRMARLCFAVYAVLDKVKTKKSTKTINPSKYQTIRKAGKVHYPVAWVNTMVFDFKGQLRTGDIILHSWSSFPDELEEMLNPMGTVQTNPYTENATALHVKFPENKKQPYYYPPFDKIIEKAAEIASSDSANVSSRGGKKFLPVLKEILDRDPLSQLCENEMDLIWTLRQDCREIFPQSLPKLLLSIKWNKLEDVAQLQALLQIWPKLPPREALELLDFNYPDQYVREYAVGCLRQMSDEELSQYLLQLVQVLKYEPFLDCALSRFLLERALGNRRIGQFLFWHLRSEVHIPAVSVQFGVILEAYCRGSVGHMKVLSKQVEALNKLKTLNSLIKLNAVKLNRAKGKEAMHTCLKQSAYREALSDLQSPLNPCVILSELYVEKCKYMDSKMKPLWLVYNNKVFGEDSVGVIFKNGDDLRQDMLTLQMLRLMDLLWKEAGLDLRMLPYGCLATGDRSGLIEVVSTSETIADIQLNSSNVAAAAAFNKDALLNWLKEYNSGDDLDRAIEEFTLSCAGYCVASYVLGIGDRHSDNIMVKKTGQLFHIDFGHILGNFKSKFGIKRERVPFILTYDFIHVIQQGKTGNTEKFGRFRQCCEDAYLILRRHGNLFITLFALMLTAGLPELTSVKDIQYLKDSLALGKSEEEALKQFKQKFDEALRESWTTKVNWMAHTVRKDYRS
T5 sequence (P42345 1360-2549 limits assumed): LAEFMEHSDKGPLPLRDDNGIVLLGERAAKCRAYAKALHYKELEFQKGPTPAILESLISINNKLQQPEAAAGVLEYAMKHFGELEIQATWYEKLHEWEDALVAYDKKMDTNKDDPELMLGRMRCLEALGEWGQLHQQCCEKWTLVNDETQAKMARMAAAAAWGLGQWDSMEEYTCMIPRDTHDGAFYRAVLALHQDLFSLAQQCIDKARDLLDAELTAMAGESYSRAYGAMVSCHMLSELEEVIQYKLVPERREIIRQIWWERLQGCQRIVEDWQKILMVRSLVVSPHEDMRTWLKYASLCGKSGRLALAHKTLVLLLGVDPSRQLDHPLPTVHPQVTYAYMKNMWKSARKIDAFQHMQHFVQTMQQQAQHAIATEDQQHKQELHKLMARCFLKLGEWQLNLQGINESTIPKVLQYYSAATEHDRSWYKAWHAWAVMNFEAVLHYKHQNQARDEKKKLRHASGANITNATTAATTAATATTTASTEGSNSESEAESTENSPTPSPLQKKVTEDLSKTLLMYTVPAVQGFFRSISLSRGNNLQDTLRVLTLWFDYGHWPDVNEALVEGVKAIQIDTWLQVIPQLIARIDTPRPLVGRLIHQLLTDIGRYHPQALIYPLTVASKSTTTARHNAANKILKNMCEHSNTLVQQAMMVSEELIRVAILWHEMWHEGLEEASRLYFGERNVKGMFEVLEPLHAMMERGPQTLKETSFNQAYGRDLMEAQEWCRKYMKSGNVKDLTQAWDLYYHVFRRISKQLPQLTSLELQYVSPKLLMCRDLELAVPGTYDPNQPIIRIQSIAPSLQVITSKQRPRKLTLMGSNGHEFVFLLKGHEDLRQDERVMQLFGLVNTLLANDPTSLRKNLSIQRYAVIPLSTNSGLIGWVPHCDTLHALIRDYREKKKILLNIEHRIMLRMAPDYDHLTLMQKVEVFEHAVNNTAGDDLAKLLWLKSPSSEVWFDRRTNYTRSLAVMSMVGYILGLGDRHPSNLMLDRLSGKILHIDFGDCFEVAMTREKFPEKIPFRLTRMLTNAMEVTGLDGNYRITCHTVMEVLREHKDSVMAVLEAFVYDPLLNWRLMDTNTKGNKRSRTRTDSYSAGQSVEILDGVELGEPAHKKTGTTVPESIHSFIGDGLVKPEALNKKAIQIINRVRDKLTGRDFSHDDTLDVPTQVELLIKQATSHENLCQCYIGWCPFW
T1 sequence (O00329 with tags, fused parts or gaps limits assumed): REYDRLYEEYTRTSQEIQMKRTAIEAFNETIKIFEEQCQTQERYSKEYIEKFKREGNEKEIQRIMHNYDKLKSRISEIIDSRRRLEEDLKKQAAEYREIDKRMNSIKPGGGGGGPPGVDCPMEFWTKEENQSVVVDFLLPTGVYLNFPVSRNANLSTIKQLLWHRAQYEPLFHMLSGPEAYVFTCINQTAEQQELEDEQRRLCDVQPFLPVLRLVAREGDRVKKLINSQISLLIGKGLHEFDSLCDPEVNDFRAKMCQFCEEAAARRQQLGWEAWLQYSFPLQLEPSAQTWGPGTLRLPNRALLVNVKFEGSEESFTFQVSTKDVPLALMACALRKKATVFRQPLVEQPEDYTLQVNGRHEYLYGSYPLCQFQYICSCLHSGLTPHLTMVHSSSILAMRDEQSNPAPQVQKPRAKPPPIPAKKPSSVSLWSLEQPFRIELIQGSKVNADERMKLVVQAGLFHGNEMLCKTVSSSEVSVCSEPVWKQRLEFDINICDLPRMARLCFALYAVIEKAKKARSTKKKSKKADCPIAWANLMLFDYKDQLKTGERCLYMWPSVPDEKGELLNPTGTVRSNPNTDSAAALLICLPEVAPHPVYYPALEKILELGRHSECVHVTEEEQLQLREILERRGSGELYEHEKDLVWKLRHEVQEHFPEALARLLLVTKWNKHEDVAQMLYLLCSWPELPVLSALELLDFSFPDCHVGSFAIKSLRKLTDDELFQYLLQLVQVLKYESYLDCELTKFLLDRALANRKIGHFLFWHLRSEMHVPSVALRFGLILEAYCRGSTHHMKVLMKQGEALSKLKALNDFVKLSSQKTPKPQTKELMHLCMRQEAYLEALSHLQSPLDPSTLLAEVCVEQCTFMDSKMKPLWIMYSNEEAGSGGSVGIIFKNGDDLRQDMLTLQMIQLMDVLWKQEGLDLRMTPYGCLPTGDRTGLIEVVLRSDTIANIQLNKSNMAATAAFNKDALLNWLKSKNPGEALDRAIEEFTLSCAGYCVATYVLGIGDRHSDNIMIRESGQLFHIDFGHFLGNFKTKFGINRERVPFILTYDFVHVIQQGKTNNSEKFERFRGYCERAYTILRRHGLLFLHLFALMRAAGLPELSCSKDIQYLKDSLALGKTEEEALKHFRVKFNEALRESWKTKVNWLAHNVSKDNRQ
T3 sequence (P48736 144-1102 limits assumed): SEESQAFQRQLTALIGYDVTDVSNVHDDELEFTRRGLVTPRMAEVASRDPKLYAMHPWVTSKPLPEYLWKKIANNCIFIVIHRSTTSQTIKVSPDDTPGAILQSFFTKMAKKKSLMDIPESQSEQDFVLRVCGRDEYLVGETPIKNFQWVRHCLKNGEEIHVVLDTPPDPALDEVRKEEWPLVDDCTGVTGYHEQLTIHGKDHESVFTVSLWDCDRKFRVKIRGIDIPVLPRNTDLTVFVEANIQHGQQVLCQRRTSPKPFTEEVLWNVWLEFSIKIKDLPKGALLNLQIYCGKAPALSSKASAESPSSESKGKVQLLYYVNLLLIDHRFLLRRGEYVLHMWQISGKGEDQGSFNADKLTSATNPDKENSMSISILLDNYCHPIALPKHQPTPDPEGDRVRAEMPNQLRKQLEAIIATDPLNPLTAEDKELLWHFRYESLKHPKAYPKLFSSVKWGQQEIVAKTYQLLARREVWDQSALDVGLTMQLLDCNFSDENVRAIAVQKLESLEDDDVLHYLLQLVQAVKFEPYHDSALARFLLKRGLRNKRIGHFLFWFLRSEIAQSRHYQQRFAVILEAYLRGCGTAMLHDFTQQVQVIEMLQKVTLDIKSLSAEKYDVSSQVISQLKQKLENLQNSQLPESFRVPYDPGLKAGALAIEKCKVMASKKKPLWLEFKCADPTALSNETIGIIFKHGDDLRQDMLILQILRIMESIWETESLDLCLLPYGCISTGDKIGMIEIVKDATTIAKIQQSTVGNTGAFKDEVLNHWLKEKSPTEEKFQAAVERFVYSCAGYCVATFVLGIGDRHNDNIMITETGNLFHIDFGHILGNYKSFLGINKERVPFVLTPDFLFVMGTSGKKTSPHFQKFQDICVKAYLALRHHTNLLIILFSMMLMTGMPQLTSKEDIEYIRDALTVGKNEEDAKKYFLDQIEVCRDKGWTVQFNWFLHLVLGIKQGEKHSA

Take `CCOc1ccc(-c2ccc3ncc4c(c3c2)n(-c2cc(C(F)(F)F)nn2C)c(=O)n4C)cn1` [Example 3.2, 8-(6-Ethoxy-pyridin-3-yl)-3-methyl-1-(2-methyl-5-trifluoromethyl-2H-pyrazol-3-yl)-1,3-dihydro-imidazo[4,5-c]quinolin-2-one]: the IC50 in data set [1] came out at 473 nM; at PI3K delta, 394 nM; in data set [2], 138 nM; on PI3K alpha it was 78 nM; at PI3K gamma it was 559 nM; in data set [3] it was 120 nM.

On to `CCOc1ccc(-c2ccc3ncc4c(c3c2)n(-c2c(C)nn(CCOC)c2C)c(=O)n4C)cn1` [Example 3.11, 8-(6-Ethoxy-pyridin-3-yl)-1-[1-(2-methoxy-ethyl)-3,5-dimethyl-1H-pyrazol-4-yl]-3-methyl-1,3-dihydro-imidazo[4,5-c]quinolin-2-one], for which the half-inhibitory concentration (IC50) was 772 nM in data set [1]; 228 nM at PI3K delta; 510 nM in data set [2]; 207 nM on PI3K alpha; 237 nM in data set [3]; 473 nM on PI3K beta. The solubility in “Solubility at pH 6.8” is over 473 µg/mL.

With `Cc1nn(C)cc1-n1c(=O)n(C)c2cnc3ccc(-c4ccc(OCCOCc5ccccc5)nc4)cc3c21` [Example 19, 8-[6-(2-Benzyloxy-ethoxy)-pyridin-3-yl]-1-(1,3-dimethyl-1H-pyrazol-4-yl)-3-methyl-1,3-dihydro-imidazo[4,5-c]quinolin-2-one], the IC50 worked out at 468 nM on PI3K delta, 482 nM at PI3K alpha and 971 nM on PI3K gamma.

As for `Cc1nn(C)cc1-n1c(=O)n(C)c2cnc3ccc(-c4cncc(N)c4)cc3c21` [Example 45], the IC50 at PI3K gamma came to 283 nM.

As for `CCOc1cc(-c2ccc3ncc4c(c3c2)n(-c2c(C)nn(CCOC)c2C)c(=O)n4C)cnc1C` [Example 85.2, 8-(5-Ethoxy-6-methyl-pyridin-3-yl)-1-[1-(2-methoxy-ethyl)-3,5-dimethyl-1H-pyrazol-4-yl]-3-methyl-1,3-dihydro-imidazo[4,5-c]quinolin-2-one], the IC50 in data set [1] turned out to be 224 nM; on PI3K delta it was 57 nM; in [2], 516 nM; on PI3K alpha, 46 nM; in [3], 187 nM; on PI3K beta it was 139 nM. Moreover, in “Solubility at pH 6.8”, the solubility is over 487 µg/mL.

For `COc1ccc(-c2ccc3ncc4c(c3c2)n(-c2cn(CC(=O)O)nc2C)c(=O)n4C)cn1` [Example 101, {4-[8-(6-Methoxy-pyridin-3-yl)-3-methyl-2-oxo-2,3-dihydro-imidazo[4,5-c]quinolin-1-yl]-3-methyl-pyrazol-1-yl}-acetic acid], the IC50 on PI3K delta was 15 nM; on PI3K alpha, 5 nM; at PI3K gamma, 138 nM; at PI3K beta, 23 nM; on mTOR, under 3 nM.

As to `CCn1cc(-n2c(=O)n(C)c3cnc4ccc(-c5cnc(COC)c(NC)c5)cc4c32)c(C)n1` [Example 160.2, 1-(1-Ethyl-3-Methyl-1H-pyrazol-4-yl)-8-(6-methoxymethyl-5-methylamino-pyridin-3-yl)-3-methyl-1,3-dihydro-imidazol[4,5-c]quinolin-2-one], the half-inhibitory concentration (IC50) on PI3K delta stood at 16 nM; on PI3K alpha it was 39 nM; on PI3K beta it was 130 nM; at mTOR, 25 nM. Besides, in “Solubility at pH 6.8”, the solubility worked out at 237 µg/mL (≈ 518 µM).

As for `COCCn1nc(C)c(-n2c(=O)n(C)c3cnc4ccc(-c5cncc(NC(C)C)c5)cc4c32)c1C` [Example 177.2, 8-(5-Isopropylamino-pyridin-3-yl)-1-[1-(2-methoxy-ethyl)-3,5-dimethyl-1H-pyrazol-4-yl]-3-methyl-1,3-dihydro-imidazo[4,5-c]quinolin-2-one], the IC50 in [1] came out at 559 nM; at PI3K delta, 70 nM; in data set [2], 494 nM; at PI3K alpha, 70 nM; in data set [3] it was 124 nM; on PI3K beta, 327 nM. Besides, the solubility in “Solubility at pH 6.8” worked out at 479 µg/mL (≈ 986 µM).

With `Cc1nn(C)cc1-n1c(=O)n(C)c2cnc3ccc(-c4cncc(CN)c4)cc3c21` [Example 230, 8-(5-Aminomethyl-pyridin-3-yl)-1-(1,3-dimethyl-1H-pyrazol-4-yl)-3-methyl-1,3-dihydro-imidazo[4,5-c]quinolin-2-one], the 50% inhibitory concentration (IC50) on PI3K delta turned out to be 437 nM; on PI3K alpha it was 100 nM; on PI3K beta, 344 nM; at mTOR, 465 nM. Besides, the solubility in “Solubility at pH 6.8” was over 399 µg/mL.

As to `Cc1nn(C)cc1-n1c(=O)n(C)c2cnc3ccc(-c4cncc(CNS(C)(=O)=O)c4)cc3c21` [Example 232], the concentration for half-maximal inhibition (IC50) stood at 60 nM at PI3K delta, 44 nM at PI3K alpha, 101 nM at PI3K beta and 56 nM on mTOR. Moreover, the solubility in the data set “Solubility at pH 6.8” came to 83 µg/mL (≈ 174 µM).

Usually IC50 stands for the point on the concentration scale where inhibition reaches its midpoint. For orientation: solubility means the dissolved amount per volume that the medium holds.
